Article PMC12029898, “Cellular Metabolomics Reveals Differences in the Scope of Liver Protection Between Ammonium-Based Glycyrrhizinate and Magnesium Isoglycyrrhizinate” (Metabolites, 2025)

How the values were obtained:
Format in all cases: cell-based, human
[1] = system: LO2 cells; experiment: Cell metabolomics (UPLC-MS/MSe) of APAP-injured LO2 cells, differential metabolites DIAM vs MAGN; conditions: 600 μM, 48 h
Protocol: LC-MS/MS analysis was conducted utilizing a Waters Acquity H UPLC system, interfaced with a Q-MS detector (Xevo G3 QTof, Waters, Milford, MA, USA). Chromatographic separation of metabolites was achieved on a BEH C18 Column (1.7 µm, 2.1 mm × 100 mm, Waters), maintained at a temperature of 40 °C. The injector sample chamber was maintained at 4 °C to ensure optimal sample handling. For positive ion analysis, the mobile phase comprised two solvents, 0.1% formic acid in water (solvent A) and acetonitrile (solvent B), delivered at a flow rate of 300 μL/min. The elution gradient was programmed as follows (acetonitrile percentage): 0–1 min 5%, 1–2 min 5–30%, 2–4 min 30–50%, 4–16 min 50–90%, 19–21 min 95%, 21–21.1 min 95–5%, and 21.1–23 min 5%. The capillary, sample cone, and source offset were set as 2.18 kV, 40, and 30. The temperatures of the source and desolvation were 100 and 600 °C. The gas flow of the cone gas and desolvation gas was set as 50 and 800 L/h. For the negative ion mode, the mobile phase consisted of 10 mM ammonium acetate (solvent A) and acetonitrile (solvent B), delivered at a flow rate of 300 μL/min. The elution gradient was programmed as follows: 0–1 min, 5%; 1–3 min, 5–80%; 3–4 min, 80–82%; 4–6 min, 82–88%; 6–25 min, 88–92%; 25–27 min, 92–95%; 27–27.1 min, 95–5%; 27.1–29 min, 5%. The mass spectrometry conditions were similar to those employed in the positive mode, with the exception of the capillary voltage, which was set to 2 kV. All samples were analyzed using an ESI source in MSe full scan mode, with a mass range spanning from m/z 50 to 2000 and a scan time of 0.5 s. Additionally, an automatic calibration system was employed to automatically adjust the MS and MSe parameters every 10 s.
LO2 cells in the logarithmic growth phase were seeded into a 6-well plate at a density of 3 × 10^4 cells per well and incubated overnight under conditions of 37 °C and 5% CO2. Subsequently, varying concentrations of APAP were introduced, and MONO, DIAM, and MAGN were dissolved in the culture medium prior to their addition to the wells, ensuring a final concentration of 600 μM. The cells were then exposed to these samples for 48 h, following which the culture medium was discarded. The cells were rinsed with pre-cooled PBS at 4 °C and subsequently inactivated by the addition of 80% methanol maintained at a temperature below −20 °C. The cells were scraped off and homogenized using a cell disruptor for 3 min in an ice bath. The homogenized samples were centrifuged at 7500× g for 20 min at 4 °C, and the resultant supernatant was collected and dried using nitrogen gas. The dried samples were redissolved in 80% methanol at −20 °C, vortexed for 1 min, sonicated for 30 s, and then centrifuged again at 7500× g for 20 min at 4 °C. A total of 10 μL was allocated from each sample and mixed as a quality control (QC) sample, while 5 μL of the supernatant was subjected to UPLC-MS/MSe data acquisition on the instrument. The entire procedure was repeated in parallel for all samples, with a total of six replicates performed.
Firstly, the raw data in the “.raw” format were imported into Progenesis QI software (Waters, Milford, MA, USA). This processing encompassed peak alignment, deconvolution, denoising, and other essential steps, resulting in the extraction of crucial information including retention time, charge-to-mass ratio, compound names, peak areas, and related parameters. To ensure data comparability and accuracy, each peak was then normalized against the total ion intensity, yielding a standardized matrix of retention time, peak area, and m/z values. […] Concurrently, the processed data were imported into SIMCA-P 14.0 software (Umetrics, Umeaa, Sweden) for advanced multivariate statistical analysis, encompassing principal component analysis (PCA) and supervised Orthogonal Partial Least Squares Discriminant Analysis (OPLS-DA). […]

[2] = system: LO2 cells; experiment: Hepatocyte protection rate in APAP-induced LO2 cells (MTT); conditions: for liver protection rate: 16 mM APAP; for hepatocyte protection (therapeutic effect): 16 mM APAP, 200, 400 and 600 μM
Protocol: Assessment of hepatocyte-protective effects: Cells in the logarithmic growth phase were seeded onto a 96-well plate at a density of 4000 cells per well, followed by incubation at 37 °C in an atmosphere containing 5% CO2. After 24 h of incubation, cells were treated with 16 mM APAP, followed by the addition of MONO, DIAM, and MAGN at three escalating concentrations (200, 400, and 600 μM for each compound). The cell survival rate was quantitatively evaluated using MTT method. The protective efficacy of the compounds was then calculated employing the formula outlined below.(1) Hepatocytes protection rate=AGlycyrrhizinate−AAPAP/Anormal−AAPAP×1

[3] = system: 11β-hydroxysteroid dehydrogenase type 1 (11β-HSD1); experiment: ELISA of protein expression in LO2 cells: 11β-HSD1; conditions: 16 mM APAP, 600 μM, 48 h
Protocol: (§1) The expression levels of glutamylcysteine synthetase (GCL), glutathione synthetase (GS), and 11β-hydroxysteroid dehydrogenase type 1 (11β-HSD1) in cells were quantified using commercially available enzyme-linked immunosorbent assay (ELISA) kits (Shanghai Aimeng Youning Biotechnology Co., Ltd., Shanghai, China). Cells in the logarithmic growth phase were seeded into 6-well plates at a density of 3 × 10^4 cells per well, pre-incubated for 24 h, and subsequently exposed to 16 mM APAP with concurrent administration of MONO, DIAM, and MAGN at a final concentration of 600 μM for 48 h. Following three PBS washes, cells were harvested using cell scrapers. Total protein content was determined by the Bradford assay, and samples were normalized to equivalent protein concentrations prior to quantitative analysis of target proteins according to the manufacturer’s protocols.

[4] = system: glutathione synthetase (GS); experiment: ELISA of protein expression in LO2 cells: GS; conditions: 16 mM APAP, 600 μM, 48 h
Protocol: as §1

[5] = system: glutamylcysteine synthetase (GCL); experiment: ELISA of protein expression in LO2 cells: GCL; conditions: 16 mM APAP, 600 μM, 48 h
Protocol: as §1

## CC1(C)[C@@H](O[C@H]2O[C@H](C(=O)O)[C@@H](O)[C@H](O)[C@H]2O[C@@H]2O[C@H](C(=O)O)[C@@H](O)[C@H](O)[C@H]2O)CC[C@]2(C)[C@H]3C(=O)C=C4[C@@H]5C[C@@](C)(C(=O)O)CC[C@]5(C)CC[C@@]4(C)[C@]3(C)CC[C@@H]12 [DIAM, diammonium glycyrrhizinate]
[1]; highest group DIAM vs MAGN
  FC of 3-(10Z)-10-Heptadecen-1-ylphenol: 1.68
  FC of 7-Dehydrocholesterol benzoate: >10
  FC of 8-Demethyl meiqx: 1.92
  FC of 25-Hydroxyvitamin D2: 3.85
  FC of Ammonium glycyrrhizate: 2.12
  FC of Argiotoxin 659: 2.98
  FC of Butyroin: 1.23
  FC of C14 Ceramide: 1.20
  FC of C16 Lactosylceramide (d18:1/16:0): 1.24
  FC of CETYL BENZOATE: 1.37
  FC of Cerlapirdine: >10
  FC of Ergocryptine: 1.92
  FC of Euscaphic acid: 4.79
  FC of Floctafenine: 4.41
  FC of Glabric acid: >10
  FC of Glycerol phenylbutyrate: 1.36
  FC of Glycyrrhetaldehyde: >10
  FC of Glycyrrhizin: 1.24
  FC of Gypsogenin: 1.79
  FC of N-eicosanoylsphinganine: 2.07
  FC of N-tetracosanoylsphinganine: >10
  FC of Onnamide A: 2.42
  FC of Pinnatoxin G: 1.55
  FC of Prednisolone sodium tetrahydrophthalic: 1.66
  FC of Pristimerin: 1.26
  FC of Propapyriogenin A2: 6.06
  FC of Sampangine: >10
  FC of Sphingosine-1-phosphate (d16:1): 3.78
  FC of Stanozolol: 1.81
  FC of Testosterone ketolaurate: 1.67
  FC of Tetrahydrospirilloxanthin: 1.29
  FC of Tirilazad: 1.74
  FC of Tisocalcitate: 1.39
  FC of Trametenolic acid: >10
  FC of Varespladib: 1.71
[2]; 400 μM
  liver protection rate: comparable liver protection rates, which were statistically indistinguishable and surpassed that of MONO
[2]
  hepatocyte protection (therapeutic effect): concentration-dependent therapeutic effects
[3]
  11β-HSD1 expression: most pronounced upregulation

## CC1(C)[C@@H](O[C@H]2O[C@H](C(=O)O)[C@@H](O)[C@H](O)[C@H]2O[C@@H]2O[C@H](C(=O)O)[C@@H](O)[C@H](O)[C@H]2O)CC[C@]2(C)[C@H]3C(=O)C=C4[C@H]5C[C@@](C)(C(=O)O)CC[C@]5(C)CC[C@@]4(C)[C@]3(C)CC[C@@H]12 [MAGN, magnesium isoglycyrrhizinate]
[4]
  GS expression: remained comparable to DIAM-treated control
[1]; MAGN compared to DIAM
  GSH-to-GSSG ratio: stable
[1]; highest group MAGN vs DIAM
  FC of Alpha-Cehc: 1.21
  FC of Dioleoylphosphatidylserine: 1.92
  FC of GSH: 1.24
  FC of GSSG: 1.28
  FC of Menaquinol-8: 1.68
  FC of N-[(15Z)-tetracosenoyl]sphing-4-enine-1-phosphocholine: 2.55
  FC of Solanidine: 1.32
[2]; 400 μM
  liver protection rate: comparable liver protection rates, which were statistically indistinguishable and surpassed that of MONO
[2]; 600 μM
  liver protection rate: superior protective rate compared to DIAM
[2]
  hepatocyte protection (therapeutic effect): concentration-dependent therapeutic effects
[5]
  intracellular GCL levels: significantly elevated
